Measured values from US4005146A, “Resolution of dl-allethrolone” (Roussel-UCLAF, priority 1971, dated 1977).

What was measured:
[1] = Insecticidal activity of d-allethrolone d-trans chrysanthemate vs the dl-allethrolone ester (general statement); format: in vivo
[2] = system: female german cockroaches; experiment: Knock down effect on female german cockroaches by direct spraying; format: in vivo; settings: for % KD after 5 min. / % KD after 10 min. / % KD after 15 min. / % KD after 30 min. / % KD after 60 min.: direct spraying 0.5 ml kerosene/acetone; for KD50 times more active than compound B: compound A vs compound B
Description: The knock down effect of the same two compounds was determined on female german cockroaches by direct spraying as 0.5 ml of a solution in equal volumes of kerosene and acetone. 20 insects were used for each test and the knock down effect was determined at 5,10,15,30 and 60 minutes after treatment.

house flies = experiment: Lethal insecticidal activity on house flies, topical application to dorsal thorax; format: in vivo; settings: for % Mortality / DL50: 24 hours after topical treatment, 1 μl acetone solution
Description: The lethal insecticidal activity of d-allethrolone chrysanthemate (compound A) was compared with dl-allethrolone chrysanthemate (compound B) on house flies by topically applying 1 μl of an acetone solution thereof to the dorsal thorax of the insect. 50 insects were used for each dose and the number of dead was determined 24 hours after the treatment.

[3] = vs chrysanthemic acid ester of levo allethrolone; Elliott, J. Sci. Food Agr. 1954; cited from earlier work

| SMILES | % KD after 5 min. ([2]; 250 mg/l) | % KD after 10 min. ([2]; 250 mg/l) | % KD after 15 min. ([2]; 250 mg/l) | % KD after 30 min. ([2]; 250 mg/l) | % KD after 60 min. ([2]; 250 mg/l) | % KD after 5 min. ([2]; 500 mg/l) | % KD after 10 min. ([2]; 500 mg/l) | % KD after 15 min. ([2]; 500 mg/l) | % KD after 30 min. ([2]; 500 mg/l) | % KD after 60 min. ([2]; 500 mg/l) | % KD after 5 min. ([2]; 1000 mg/l) | % KD after 10 min. ([2]; 1000 mg/l) | % KD after 15 min. ([2]; 1000 mg/l) | % KD after 30 min. ([2]; 1000 mg/l) | % KD after 60 min. ([2]; 1000 mg/l) | % Mortality (house flies; 50 mg/l) | % Mortality (house flies; 100 mg/l) | DL50 (house flies) | other results |
| --- | --- | --- | --- | --- | --- | --- | --- | --- | --- | --- | --- | --- | --- | --- | --- | --- | --- | --- | --- |
| C=CCC1=C(C)[C@@H](OC(=O)[C@@H]2[C@@H](C=C(C)C)C2(C)C)CC1=O [d-allethrolone d-trans chrysanthemate] | – | – | – | – | – | – | – | – | – | – | – | – | – | – | – | – | – | – | insecticidal activity relative to the corresponding dl-allethrolone ester [1]: much superior insecticidal activity |
| C=CCC1=C(C)C(OC(=O)C2C(C=C(C)C)C2(C)C)CC1=O (racemic) [B, dl-allethrolone chrysanthemate, reference compound] | 7.5% | 7.5% | 12.5% | 12.5% | 12.5% | 30.9% | 50.0% | 54.7% | 47.6% | 45.2% | 46.1% | 64.1% | 74.3% | 79.4% | 89.7% | 16.2% | 33.7% | 224.3 mg/L | % Mortality (house flies; 200 mg/l): 49.0%; % Mortality (house flies; 300 mg/l): 55.1% |
| C=CCC1=C(C)[C@@H](OC(=O)C2C(C=C(C)C)C2(C)C)CC1=O (stereo partly drawn) [A, d-allethrolone chrysanthemate] | 45.0% | 52.5% | 65.0% | 62.5% | 65.0% | 61.9% | 71.4% | 83.3% | 85.7% | 88.0% | 100% | 100% | 100% | 100% | 100% | 45.6% | 65.3% | 54 mg/L | times more effective as an insecticide than the ester of levo allethrolone [3]: 4 times; KD50 times more active than compound B ([2]; 5 minutes): about 4.3 times; KD50 times more active than compound B ([2]; 30 minutes): 2.8 times; % Mortality (house flies; 25 mg/l): 49.0%; % Mortality (house flies; 75 mg/l): 76.6%; times more active than compound B (lethal activity) (house flies; compound A vs compound B, Table II): 4.15 times |
